In US7902384B2, “Estrogenic-active compounds and application thereof” (National Taiwan University, priority 2008, dated 2011):
“And” between values parts separate entries of the source, which are not always exact repeats. Equal values may be shown once.

How the values were obtained:
GAL4-hERα [1] = molecular target: T1, GAL4-hERα (Homo sapiens, UniProt P03372); assay: Estrogenic activity assay with co-addition of 1 nM 17β-estradiol (antagonism or synergistic agonism), GAL4-hERα reporter in CHO-k1 cells; conditions: co-added with 1 nM 17β-estradiol, vs single addition of estrogen, p<0.05
T1 sequence (P03372 311-547 limits assumed): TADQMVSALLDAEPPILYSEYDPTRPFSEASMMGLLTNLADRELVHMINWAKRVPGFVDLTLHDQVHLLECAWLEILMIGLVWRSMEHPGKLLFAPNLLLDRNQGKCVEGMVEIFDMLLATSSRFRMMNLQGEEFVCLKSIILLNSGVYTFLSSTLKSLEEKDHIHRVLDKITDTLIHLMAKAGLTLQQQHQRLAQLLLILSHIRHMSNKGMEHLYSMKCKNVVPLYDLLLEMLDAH
Description: (§2) Plasmid pBKCMV containing GAL4hERα (or ERβ) ligand binding domain (LBD) chimeric receptors and plasmid containing (UAS)4-alkaline phosphatase (ALP) reporter gene were co-transfected into Chinese hamster cells (CHO-k1). Compounds with estrogenic activity would interact with estrogen-specific ER to induce the binding of GAL4 and upstream activation sequence (UAS) specifically to initiate the expression of ALP gene. Therefore, the ALP activity can be used to determine whether the samples to be assayed have the estrogenic activity.
(§3) Cells in high confluence were plated onto 96-well culture plate the day before transfection. The plate was then washed to remove the serum during the day of transfection, followed by addition of two plasmid DNA, GAL4-hERα and (UAS)4-ALP in the ratio of 5:1, or GAL4-hERβ and (UAS)4-ALP in the ratio of 4:1, together with Lipofectamine™ 2000 transfection agent and culture medium to form DNA-liposome complex for 5 h.
(§4) The sample to be assayed was added into the medium of transfected cells and cultivated for 2 days.

GAL4-hERβ [2] = molecular target: T2, GAL4-hERβ (Homo sapiens, UniProt Q92731); assay: Estrogenic activity assay with co-addition of 1 nM 17β-estradiol (antagonism or synergistic agonism), GAL4-hERβ reporter in CHO-k1 cells; conditions: co-added with 1 nM 17β-estradiol, vs single addition of estrogen, p<0.05
T2 sequence (Q92731 264-498 limits assumed): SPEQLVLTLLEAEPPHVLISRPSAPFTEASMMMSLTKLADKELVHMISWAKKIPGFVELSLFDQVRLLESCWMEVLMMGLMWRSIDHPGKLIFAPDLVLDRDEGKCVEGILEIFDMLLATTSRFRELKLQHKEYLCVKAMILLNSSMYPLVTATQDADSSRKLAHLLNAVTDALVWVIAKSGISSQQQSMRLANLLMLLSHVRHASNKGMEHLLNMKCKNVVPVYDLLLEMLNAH
Description: as §2, §3, §4

GAL4-hERβ [3] = molecular target: T2, GAL4-hERβ; assay: Estrogenic activity assay: GAL4-hERβ LBD / (UAS)4-ALP reporter in transfected CHO-k1 cells, single addition of sample; type: cell-based; parameters: expressed in transfected cells; host or cells: CHO-k1 (Chinese hamster cells); conditions: for EC50: read-out: EC50 for ERβ (converted); for ERβ versus ERα selectivity of activation: comparison of ERα and ERβ reporter activation
Description: (§1) First, a method for assessing the estrogenic activity in the field samples was established. This method comprises: preparing a cell line transfected with plasmids which can screen estrogenic activity substances. […] The reporter gene in the plasmid was expressed when the sample to be assayed contains estrogenic activity. Among them, the samples to be assayed in the examples of the invention include Loliolide, (4S,6S)-4-Hydroxy-6-nonadecyl-tetrahydro-pyran-2-one, (4R,6S)-4-Hydroxy-6-nonadecyl-tetrahydro-pyran-2-one. […] The details of establishing the assessing method are described as follows: […]

GAL4-hERα [4] = molecular target: T1, GAL4-hERα; assay: Estrogenic activity assay: GAL4-hERα LBD / (UAS)4-ALP reporter in transfected CHO-k1 cells, single addition of sample; type: cell-based; parameters: expressed in transfected cells; host or cells: CHO-k1 (Chinese hamster cells); conditions: for EC50: read-out: EC50 for ERα (converted)
Description: as §1

[5] = ALP reporter, CHO-k1, single addition

concentration at which activation of ERα due to estrogen was significantly decreased (GAL4-hERα [1])	concentration at which activation of ERβ due to estrogen was significantly decreased (GAL4-hERβ [2])	concentration at which maximal activation of ERβ activity was achieved (GAL4-hERβ [3]; [5])	EC50 (GAL4-hERβ [3]; [5])	ERβ versus ERα selectivity of activation (GAL4-hERβ [3])	concentration at which maximal activation of ERα activity was achieved (GAL4-hERα [4])	concentration at which maximal activation of the estrogenic activity was achieved (ERβ) (GAL4-hERβ [3]; [5])	concentration at which maximal activation of the estrogenic activity was achieved (ERα) (GAL4-hERα [4])	EC50 (GAL4-hERα [4])	SMILES
2 µg/mL	2 µg/mL	10 µg/mL	8.94 µM	better activation efficiency in ERβ	20 µg/mL				CCCCCCCCCCCCCCCCCCC[C@H]1C[C@@H](O)CC(=O)O1 [(4R,6S)-4-Hydroxy-6-nonadecyl-tetrahydro-pyran-2-one]
10.1 µM	204 µM	20 µg/mL	17.9 µM and 18 µM	better activation efficiency in ERβ	20 µg/mL	102.0 µM	102.0 µM	54.2 µM	CC1(C)C[C@H](O)C[C@@]2(C)OC(=O)C=C12 [Loliolide]
1 µg/mL	2 µg/mL	10 µg/mL	4.68 µM	better activation efficiency in ERβ	10 µg/mL			16.2 µM	CCCCCCCCCCCCCCCCCCC[C@H]1C[C@H](O)CC(=O)O1 [(4S,6S)-4-Hydroxy-6-nonadecyl-tetrahydro-pyran-2-one]
